Measurements as given in patent US6750239B2, “Pyrazole-derived kinase inhibitors and uses thereof” (Vertex Pharmaceuticals Incorporated, priority 2001, dated 2004).

Molecular target: activated ERK2 (Homo sapiens, UniProt P28482)
Test: ERK2 inhibition spectrophotometric coupled-enzyme assay
Type: biochemical
Conditions: not given
Method: Compounds are assayed for the inhibition of ERK2 by a spectrophotometric coupled-enzyme assay (Fox et al (1998) Protein Sci 7, 2249). In this assay, a fixed concentration of activated ERK2 (10 nM) is incubated with various concentrations of the compound in DMSO (2.5%) for 10 min. at 30° C. in 0.1 M HEPES buffer, pH 7.5, containing 10 mM MgCl2, 2.5 mM phosphoenolpyruvate, 200 μM NADH, 150 μg/mL pyruvate kinase, 50 μg/mL lactate dehydrogenase, and 200 μM erktide peptide. The reaction is initiated by the addition of 65 μM ATP. The rate of decrease of absorbance at 340 nm is monitored, which indicates the extent of uninhibited enzyme present in the assay. The IC50 is evaluated from the rate data as a function of inhibitor concentration.
The compound numbers correspond to the compound numbers in Tables 1-3.

Chain of activated ERK2 (P28482 whole entry): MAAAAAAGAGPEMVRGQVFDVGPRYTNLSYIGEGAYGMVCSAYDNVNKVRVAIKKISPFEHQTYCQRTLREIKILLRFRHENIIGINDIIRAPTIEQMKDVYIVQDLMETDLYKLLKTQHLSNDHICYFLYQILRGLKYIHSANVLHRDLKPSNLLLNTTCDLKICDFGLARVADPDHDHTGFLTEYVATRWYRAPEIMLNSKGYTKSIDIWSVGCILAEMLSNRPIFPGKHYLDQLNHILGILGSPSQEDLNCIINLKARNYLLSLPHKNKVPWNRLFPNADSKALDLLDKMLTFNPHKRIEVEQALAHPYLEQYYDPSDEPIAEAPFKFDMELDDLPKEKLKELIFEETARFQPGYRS

SMILES	Ki
O=C(N[C@H](CO)c1ccc(F)c(Cl)c1)c1cc(-c2[nH]ncc2-c2ccc(CNCCCl)c(Cl)c2)c[nH]1 [II-35]	< 1000 nM
O=C(N[C@H](CO)c1ccc(F)c(Cl)c1)c1cc(-c2[nH]ncc2-c2ccc(CN(CCCl)CCCl)c(Cl)c2)c[nH]1 [II-36]	< 1000 nM

Same assay, conditions: activated ERK2 10 nM, 65 μM ATP, 30° C., pH 7.5; read-out: ERK2 Inhibitory Activity (Ki class)

SMILES	Ki
CCCCNCc1ccc(-c2cn[nH]c2-c2c[nH]c(C(=O)NC(CO)c3ccc(F)c(Cl)c3)c2)cc1Cl (centres unmarked) [II-7]	< 1000 nM
CC(=O)N[C@H](C(=O)NCc1ccc(-c2cn[nH]c2-c2c[nH]c(C(=O)N[C@H](CO)c3ccc(F)c(Cl)c3)c2)cc1Cl)C(C)C [II-21]	< 1000 nM
CCNCc1ccc(-c2c[nH]nc2-c2c[nH]c(C(=O)N[C@H](CO)c3ccc(F)c(Cl)c3)c2)cc1Cl [II-26, 4-[4-(3-Chloro-4-ethylaminomethyl-phenyl)-1H-pyrazol-3-yl]-1H-pyrrole-2-carboxylic acid [1-(3-chloro-4-fluoro-phenyl)-2-hydroxy-ethyl]-amide]	< 1000 nM
O=C(N[C@H](CO)c1ccc(F)c(Cl)c1)c1cc(-c2[nH]ncc2-c2ccc(CNCCO)c(Cl)c2)c[nH]1 [II-30]	< 1000 nM
CC(O)CNCc1ccc(-c2cn[nH]c2-c2c[nH]c(C(=O)N[C@H](CO)c3ccc(F)c(Cl)c3)c2)cc1Cl (some centres unmarked) [II-31]	< 1000 nM
CC(O)CCNCc1ccc(-c2cn[nH]c2-c2c[nH]c(C(=O)N[C@H](CO)c3ccc(F)c(Cl)c3)c2)cc1Cl (some centres unmarked) [II-32]	< 1000 nM
N#CCNCc1ccc(-c2cn[nH]c2-c2c[nH]c(C(=O)N[C@H](CO)c3ccc(F)c(Cl)c3)c2)cc1Cl [II-33]	< 1000 nM
CCN(CC)Cc1ccc(-c2cn[nH]c2-c2c[nH]c(C(=O)N[C@H](CO)c3ccc(F)c(Cl)c3)c2)cc1Cl [II-34]	< 1000 nM
CC(C)(C)OC(=O)NCCNCc1ccc(-c2cn[nH]c2-c2c[nH]c(C(=O)N[C@H](CO)c3ccc(F)c(Cl)c3)c2)cc1Cl [II-37]	< 1000 nM
CCN(CC)CC(=O)NCc1ccc(-c2cn[nH]c2-c2c[nH]c(C(=O)N[C@H](CO)c3ccc(F)c(Cl)c3)c2)cc1Cl [II-38]	< 1000 nM
CC(CC(=O)N(C)C)NCc1ccc(-c2cn[nH]c2-c2c[nH]c(C(=O)N[C@H](CO)c3ccc(F)c(Cl)c3)c2)cc1Cl (some centres unmarked) [II-52]	< 1000 nM
CCC(=O)CNCc1ccc(-c2cn[nH]c2-c2c[nH]c(C(=O)N[C@H](CO)c3ccc(F)c(Cl)c3)c2)cc1Cl [II-53]	< 1000 nM
CC(C)N(C)Cc1ccc(-c2cn[nH]c2-c2c[nH]c(C(=O)N[C@H](CO)c3ccc(F)c(Cl)c3)c2)cc1Cl [II-54]	< 1000 nM
CCOC(=O)C(C)NCc1ccc(-c2cn[nH]c2-c2c[nH]c(C(=O)N[C@H](CO)c3ccc(F)c(Cl)c3)c2)cc1Cl (some centres unmarked) [II-55]	< 1000 nM
N[C@H](CO)C(=O)NCc1ccc(-c2cn[nH]c2-c2c[nH]c(C(=O)N[C@H](CO)c3ccc(F)c(Cl)c3)c2)cc1Cl [II-56]	< 1000 nM
CC(C)NCc1ccc(-c2cn[nH]c2-c2c[nH]c(C(=O)N[C@H](CO)c3ccc(F)c(Cl)c3)c2)cc1C(F)(F)F [II-57]	< 1000 nM
CC(C(=O)O)N(C)Cc1ccc(-c2cn[nH]c2-c2c[nH]c(C(=O)N[C@H](CO)c3ccc(F)c(Cl)c3)c2)cc1C(F)(F)F (some centres unmarked) [II-58]	< 1000 nM
CNC(=O)C(C)N(C)Cc1ccc(-c2cn[nH]c2-c2c[nH]c(C(=O)N[C@H](CO)c3ccc(F)c(Cl)c3)c2)cc1C(F)(F)F (some centres unmarked) [II-59]	< 1000 nM
CC(NCc1ccc(-c2cn[nH]c2-c2c[nH]c(C(=O)N[C@H](CO)c3ccc(F)c(Cl)c3)c2)cc1C(F)(F)F)C(=O)N(C)C (some centres unmarked) [II-60]	< 1000 nM
CC(C(=O)N(C)C)N(C)Cc1ccc(-c2cn[nH]c2-c2c[nH]c(C(=O)N[C@H](CO)c3ccc(F)c(Cl)c3)c2)cc1C(F)(F)F (some centres unmarked) [II-61]	< 1000 nM
CCOC(=O)C(C)NCc1ccc(-c2cn[nH]c2-c2c[nH]c(C(=O)N[C@H](CO)c3ccc(F)c(Cl)c3)c2)cc1C(F)(F)F (some centres unmarked) [II-62]	< 1000 nM
CCOC(=O)C(C)N(C)Cc1ccc(-c2cn[nH]c2-c2c[nH]c(C(=O)N[C@H](CO)c3ccc(F)c(Cl)c3)c2)cc1Cl (some centres unmarked) [II-63]	< 1000 nM
CCOC(=O)C(C)N(C)Cc1ccc(-c2cn[nH]c2-c2c[nH]c(C(=O)N[C@H](CO)c3ccc(F)c(Cl)c3)c2)cc1C(F)(F)F (some centres unmarked) [II-64]	< 1000 nM

SMILES	Ki
CNC(=O)C(C)NCc1ccc(-c2cn[nH]c2-c2c[nH]c(C(=O)N[C@H](CO)c3ccc(F)c(Cl)c3)c2)cc1C(F)(F)F (some centres unmarked) [II-65]	< 1000 nM
CC(NCc1ccc(-c2cn[nH]c2-c2c[nH]c(C(=O)N[C@H](CO)c3ccc(F)c(Cl)c3)c2)cc1Cl)C(=O)N(C)C (some centres unmarked) [II-66]	< 1000 nM
CN[C@@H](CO)C(=O)NCc1ccc(-c2cn[nH]c2-c2c[nH]c(C(=O)N[C@H](CO)c3ccc(F)c(Cl)c3)c2)cc1Cl [II-67]	< 1000 nM
NCCNCc1ccc(-c2cn[nH]c2-c2c[nH]c(C(=O)N[C@H](CO)c3ccc(F)c(Cl)c3)c2)cc1Cl [II-68]	< 1000 nM
C[C@H](N)C(=O)NCc1ccc(-c2cn[nH]c2-c2c[nH]c(C(=O)N[C@H](CO)c3ccc(F)c(Cl)c3)c2)cc1Cl [II-69]	< 1000 nM
CC(C)NCc1ccc(-c2cn[nH]c2-c2c[nH]c(C(=O)N[C@H](CO)c3ccc(F)c(Cl)c3)c2)cc1Cl [II-70]	< 1000 nM
CCNC(=O)CNCc1ccc(-c2cn[nH]c2-c2c[nH]c(C(=O)N[C@H](CO)c3ccc(F)c(Cl)c3)c2)cc1Cl [II-71]	< 1000 nM
CCOC(=O)CC(C)NCc1ccc(-c2cn[nH]c2-c2c[nH]c(C(=O)N[C@H](CO)c3ccc(F)c(Cl)c3)c2)cc1Cl (some centres unmarked) [II-72]	< 1000 nM
CCC(=O)CN(CC(=O)CC)Cc1ccc(-c2cn[nH]c2-c2c[nH]c(C(=O)N[C@H](CO)c3ccc(F)c(Cl)c3)c2)cc1Cl [II-73]	< 1000 nM
NC(=O)CN(CC(N)=O)Cc1ccc(-c2cn[nH]c2-c2c[nH]c(C(=O)N[C@H](CO)c3ccc(F)c(Cl)c3)c2)cc1Cl [II-74]	< 1000 nM
N[C@@H](CO)C(=O)NCc1ccc(-c2cn[nH]c2-c2c[nH]c(C(=O)N[C@H](CO)c3ccc(F)c(Cl)c3)c2)cc1Cl [II-75]	< 1000 nM
NC(=O)CNCc1ccc(-c2cn[nH]c2-c2c[nH]c(C(=O)N[C@H](CO)c3ccc(F)c(Cl)c3)c2)cc1Cl [II-76]	< 1000 nM
C[C@@H](O)[C@H](N)C(=O)NCc1ccc(-c2cn[nH]c2-c2c[nH]c(C(=O)N[C@H](CO)c3ccc(F)c(Cl)c3)c2)cc1Cl [II-77]	< 1000 nM
CCOC(=O)NCc1ccc(-c2cn[nH]c2-c2c[nH]c(C(=O)N[C@H](CO)c3ccc(F)c(Cl)c3)c2)cc1Cl [II-78]	< 1000 nM
CN(C)CCNCc1ccc(-c2cn[nH]c2-c2c[nH]c(C(=O)N[C@H](CO)c3ccc(F)c(Cl)c3)c2)cc1Cl [II-79]	< 1000 nM
CCN(CC)C(=O)CNCc1ccc(-c2cn[nH]c2-c2c[nH]c(C(=O)N[C@H](CO)c3ccc(F)c(Cl)c3)c2)cc1Cl [II-80]	< 1000 nM
O=C(O)CNCc1ccc(-c2cn[nH]c2-c2c[nH]c(C(=O)N[C@H](CO)c3ccc(F)c(Cl)c3)c2)cc1Cl [II-81]	< 1000 nM
CCN(CC)CCNCc1ccc(-c2cn[nH]c2-c2c[nH]c(C(=O)N[C@H](CO)c3ccc(F)c(Cl)c3)c2)cc1Cl [II-82]	< 1000 nM
CCOC(=O)CN(C)Cc1ccc(-c2cn[nH]c2-c2c[nH]c(C(=O)N[C@H](CO)c3ccc(F)c(Cl)c3)c2)cc1Cl [II-83]	< 1000 nM
CCOC(=O)CN(CC(=O)OCC)Cc1ccc(-c2cn[nH]c2-c2c[nH]c(C(=O)N[C@H](CO)c3ccc(F)c(Cl)c3)c2)cc1Cl [II-84]	< 1000 nM
CCNC(=O)CN(CC(=O)NCC)Cc1ccc(-c2cn[nH]c2-c2c[nH]c(C(=O)N[C@H](CO)c3ccc(F)c(Cl)c3)c2)cc1Cl [II-85]	< 1000 nM
CCN(CC)C(=O)CN(CC(=O)N(CC)CC)Cc1ccc(-c2cn[nH]c2-c2c[nH]c(C(=O)N[C@H](CO)c3ccc(F)c(Cl)c3)c2)cc1Cl [II-86]	< 1000 nM

Tested on: Colon cancer cells (HT-29 cell line)
Test: ERK inhibition cell proliferation assay (3H-thymidine uptake)
Type: cell-based
Conditions: Homo sapiens, HT-29 cells, 3 days incubation
Method: Compounds may be assayed for the inhibition of ERK2 by a cell proliferation assay. In this assay, a complete media is prepared by adding 10% fetal bovine serum and penicillin/streptomycin solution to RPMI 1640 medium (JRH Biosciences). Colon cancer cells (HT-29 cell line) are added to each of 84 wells of a 96 well plate at a seeding density of 10,000 cells/well/150 μL. The cells are allowed to attach to the plate by incubating at 37° C. for 2 hours. A solution of test compound is prepared in complete media by serial dilution to obtain the following concentrations: 20 μM, 6.7 μM, 2.2 μM, 0.74 μM, 0.25 μM, and 0.08 μM. The test compound solution (50 μL) is added to each of 72 cell-containing wells. To the 12 remaining cell-containing wells, only complete media (200 μL) is added to form a control group in order to measure maximal proliferation. To the remaining 12 empty wells, complete media is added to form a vehicle control group in order to measure background. The plates are incubated at 37° C. for 3 days. A stock solution of ^3H-thymidine (1 mCi/mL, New England Nuclear, Boston, Mass.) is diluted to […] in RPMI medium then 20 μL of this solution is added to each well. The plates are further incubated at 37° C. for 8 hours then harvested and analyzed for ^3H-thymidine uptake using a liquid scintillation counter.

SMILES	IC50
CCCCNCc1ccc(-c2cn[nH]c2-c2c[nH]c(C(=O)NC(CO)c3ccc(F)c(Cl)c3)c2)cc1Cl (centres unmarked) [II-7]	< 10000 nM
CC(=O)N[C@H](C(=O)NCc1ccc(-c2cn[nH]c2-c2c[nH]c(C(=O)N[C@H](CO)c3ccc(F)c(Cl)c3)c2)cc1Cl)C(C)C [II-21]	< 10000 nM
CCNCc1ccc(-c2c[nH]nc2-c2c[nH]c(C(=O)N[C@H](CO)c3ccc(F)c(Cl)c3)c2)cc1Cl [II-26, 4-[4-(3-Chloro-4-ethylaminomethyl-phenyl)-1H-pyrazol-3-yl]-1H-pyrrole-2-carboxylic acid [1-(3-chloro-4-fluoro-phenyl)-2-hydroxy-ethyl]-amide]	< 10000 nM
